US20140242093A1, “METHODS AND COMPOSITIONS FOR MODULATING THE INNATE IMMUNE RESPONSE AND/OR MYOGENESIS IN A MAMMALIAN SUBJECT” (FRED HUTCHINSON CANCER RESEARCH CENTER, priority 2011, published 2014)

System: human genome (hg18)
Experiment: ChIP-Seq of DUX4 binding sites in transduced primary myoblasts
Conditions: for max.cov (peak height): non-repeat binding site
Protocol: Non-redundant reads unambiguously mapped to the human genome were computationally extended to a total length of 200 nucleotides and “peaks” were defined as regions where the number of reads was higher than a statistical threshold compared to the background, as described below. Reads mapping to the X and Y chromosomes were excluded from the analysis.
ChIP was performed and ChIP DNA samples were prepared as previously described in Cao et al., Dev. Cell 18:662-674 (2010), hereby incorporated herein by reference. […] Anti-DUX4 N-terminus polyclonal antibodies FH106 and FH107 were combined to immunoprecipitate DUX4-s. The samples were sequenced with Illumina Genome Analyzer II.
Sequences were extracted by Illumina package GApipeline and reads were aligned using BWA to the human genome (hg18). The inventors only kept one of the duplicated sequences to minimize the artifacts of PCR amplification. Each read was extended in the sequencing orientation to a total of 200 bases to infer the coverage at each genomic position. Peak calling was performed by a house developed R package “peakSig” (pending submission to Bioconductor), which model background reads by a negative binomial distribution. The negative binomial distribution can be viewed as a continuous mixture of Poisson distribution where the mixing distribution of the Poisson rate is modeled as a Gamma prior. This prior distribution is used to capture the variation of background reads density across the genome. Model parameters were estimated by fitting the truncated distribution on the number of bases with low coverage (one to three), to avoid the problem of inferring effective genome size excluding the non-mappable regions, and to eliminate contamination of any foreground signals in the high coverage regions. The inventors also fit a GC dependent mixture model so that the significance of the peaks is determined not only by peak height, but also by the GC content of the neighboring genomic regions.
Discriminative motif discovery was carried out as described in Palii et al. (2011), in which motifs were identified that distinguish a positive and a negative sequence dataset, which in this study, the positive sequences correspond to Dux4 binding sites and negative sequences correspond to the randomly sampled flanking regions of Dux4 binding sites. To generate more accurate presentation of the Dux4 binding sites from the consensus pattern returned by this analysis, the inventors tried to learn a positional weight matrix (PWM) model, using the matches of the consensus pattern as the seed to initialize the iterative expectation-maximization (EM) refinement process similar to MEME. If appropriate, the motifs are extended iteratively as long as there is sequence preference in the flanking region, and refined in the same EM process.
The inventors associated a peak to its closest TSS within the region flanked by CTCF binding sites, which were identified in a ChIP-seq experiment on human CD4+ T cells (GEO accession number GSE12889/GSM325895).

[1] = repeat family DNA/TcMar-Mariner
[2] = repeat family DNA/hAT-Blackjack

DUX4-fl: full-length DUX4 protein (SEQ ID NO:110), expressed from lentiviral or pCS2 vectors or in vitro translated
enrichment of binding in the MaLR family of retrotransposons: ~10 fold
share of sequences under the peaks with a second larger (LTR) motif: Approximately 30%
number of ChIP-Seq peaks (P-value threshold 10^−10, background peaks subtracted): 62,028 peaks
number of ChIP-Seq peaks (P-value threshold 10^−15, background peaks subtracted): 39,737 peaks
share of peaks with motif TAAYBBAATCA near the center (de novo motif analysis): greater than 90%
max.cov (peak height) (AVPI1, chr10, dist2tss 126): 56
max.cov (peak height) (BZW2, chr7, dist2tss 1939): 63
max.cov (peak height) (BZW2, chr7, dist2tss 1955): 86
max.cov (peak height) (C1orf63, chr1, dist2tss −1326): 132
max.cov (peak height) (C6orf191, chr6, dist2tss 61): 250
max.cov (peak height) (C14orf102, chr14, dist2tss −558): 159
max.cov (peak height) (C14orf138, chr14, dist2tss 326): 53
max.cov (peak height) (C14orf138, chr14, dist2tss −4696): 50
max.cov (peak height) (C21orf91, chr21, dist2tss −803): 274
max.cov (peak height) (CBARA1, chr10, dist2tss 2340): 70
max.cov (peak height) (CBARA1, chr10, dist2tss 4786): 250
max.cov (peak height) (CCNA1, chr13, dist2tss 1874): 58
max.cov (peak height) (CCNA1, chr13, dist2tss −2425): 56
max.cov (peak height) (CCNJ, chr10, dist2tss −637): 265
max.cov (peak height) (CLDN14, chr21, dist2tss −2523): 96
max.cov (peak height) (CLK1, chr2, dist2tss 4634): 163
max.cov (peak height) (CSE1L, chr20, dist2tss −1935): 57
max.cov (peak height) (CSE1L, chr20, dist2tss −5914): 53
max.cov (peak height) (CTNNAL1, chr9, dist2tss 641): 198
max.cov (peak height) (CTR9, chr11, dist2tss 1913): 46
max.cov (peak height) (DBR1, chr3, dist2tss 3981): 117
max.cov (peak height) (DDX47, chr12, dist2tss −4416): 55
max.cov (peak height) (DEFB103A, chr8, dist2tss −2289): 55
max.cov (peak height) (DENND2C, chr1, dist2tss −3169): 116
max.cov (peak height) (EGLN1, chr1, dist2tss −1): 205
max.cov (peak height) (EXOSC10, chr1, dist2tss 150): 139
max.cov (peak height) (FAM90A1, chr12, dist2tss −1597): 129
max.cov (peak height) (FBXO33, chr14, dist2tss −2226): 117
max.cov (peak height) (FRG2B, chr10, dist2tss 598): 200
max.cov (peak height) (GPBAR1, chr2, dist2tss −224): 150
max.cov (peak height) (GTF2F1, chr19, dist2tss 134): 83
max.cov (peak height) (HOXB2, chr17, dist2tss −2471): 283
max.cov (peak height) (JUP, chr17, dist2tss −701): 177
max.cov (peak height) (KDM5B, chr1, dist2tss 301): 93
max.cov (peak height) (KIF21A, chr12, dist2tss −1030): 37
max.cov (peak height) (KIF21A, chr12, dist2tss −4249): 73
max.cov (peak height) (MAPKAP1, chr9, dist2tss 3619): 153
max.cov (peak height) (MAPKAP1, chr9, dist2tss −4397): 69
max.cov (peak height) (MAST4, chr5, dist2tss −1253): 269
max.cov (peak height) (MED13, chr17, dist2tss −2755): 43
max.cov (peak height) (NANS, chr9, dist2tss 1843): 85
max.cov (peak height) (NFYA, chr6, dist2tss 49): 159
max.cov (peak height) (PABPN1, chr14, dist2tss −529): 257
max.cov (peak height) (PANX2, chr22, dist2tss −2040): 118
max.cov (peak height) (PELI1, chr2, dist2tss 4936): 85
max.cov (peak height) (PNP, chr14, dist2tss −104): 344
max.cov (peak height) (PPP2R2B, chr5, dist2tss 2498): 91
max.cov (peak height) (PRAMEF12, chr1, dist2tss −1230): 99
max.cov (peak height) (PRPF18, chr10, dist2tss 3230): 57
max.cov (peak height) (PRR4, chr12, dist2tss 83): 54
max.cov (peak height) (PTP4A1, chr6, dist2tss −2227): 105
max.cov (peak height) (PVRL3, chr3, dist2tss 2678): 51
max.cov (peak height) (RBBP6, chr16, dist2tss −1619): 76
max.cov (peak height) (RBBP6, chr16, dist2tss −1922): 323
max.cov (peak height) (RBBP6, chr16, dist2tss −4040): 46
max.cov (peak height) (RFPL1, chr22, dist2tss −3042): 124
max.cov (peak height) (RFPL2, chr22, dist2tss 3057): 129
max.cov (peak height) (RFPL2, chr22, dist2tss −2853): 118
max.cov (peak height) (RFPL4B, chr6, dist2tss −321): 232
max.cov (peak height) (RTN4, chr2, dist2tss 1853): 115
max.cov (peak height) (RTN4, chr2, dist2tss −2562): 52
max.cov (peak height) (SAMD8, chr10, dist2tss 3338): 43
max.cov (peak height) (SEC61A2, chr10, dist2tss −1861): 172
max.cov (peak height) (SFRS2B, chr11, dist2tss 42): 373
max.cov (peak height) (SH3GL2, chr9, dist2tss −4600): 88
max.cov (peak height) (SIAH1, chr16, dist2tss −2337): 118
max.cov (peak height) (SNAI1, chr20, dist2tss 769): 62
max.cov (peak height) (SON, chr21, dist2tss −2951): 244
max.cov (peak height) (SPRYD5, chr11, dist2tss −2855): 133
max.cov (peak height) (SPTY2D1, chr11, dist2tss 5934): 74
max.cov (peak height) (SPTY2D1, chr11, dist2tss −797): 105
max.cov (peak height) (SRRT, chr7, dist2tss 1546): 128
max.cov (peak height) (SYNJ1, chr21, dist2tss −766): 229
max.cov (peak height) (TAF4B, chr18, dist2tss −1741): 65
max.cov (peak height) (TFIP11, chr22, dist2tss −1353): 234
max.cov (peak height) (TRIM43, chr2, dist2tss 1385): 47
max.cov (peak height) (TRIM43, chr2, dist2tss −5584): 85
max.cov (peak height) (TRIM48, chr11, dist2tss −151): 178
max.cov (peak height) (TRIM49L1, chr11, dist2tss 200): 85
max.cov (peak height) (TRIM49L2, chr11, dist2tss −202): 109
max.cov (peak height) (USP29, chr19, dist2tss 2090): 104
max.cov (peak height) (USP29, chr19, dist2tss 3676): 66
max.cov (peak height) (ZNF217, chr20, dist2tss 3546): 122
max.cov (peak height) (ZNF217, chr20, dist2tss −2168): 55
max.cov (peak height) (ZNF296, chr19, dist2tss 182): 110
max.cov (peak height) (ZNF705A, chr12, dist2tss −5106): 224
max.cov (peak height) (ZSCAN4, chr19, dist2tss 1430): 364
max.cov (peak height) (ZSCAN5B, chr19, dist2tss 4892): 89
max.cov (peak height) (ZSCAN5B, chr19, dist2tss −4101): 67
max.cov (peak height) (ZSCAN5B, chr19, dist2tss −5014): 98
max.cov (peak height) (hCG_1651160, chr7, dist2tss −192): 215
max.cov (peak height) (hCG_1651160, chr7, dist2tss −892): 114
DUX4-fl Binding Prevalence (fraction of all DUX4-fl peaks) [1]: 0.00105
DUX4-fl Enrichment (binding prevalence/overall genome prevalence) [1]: 1.14
DUX4-fl Binding Prevalence (fraction of all DUX4-fl peaks) (repeat family DNA/TcMar-Tigger): 0.0124
DUX4-fl Enrichment (binding prevalence/overall genome prevalence) (repeat family DNA/TcMar-Tigger): 1.11
DUX4-fl Binding Prevalence (fraction of all DUX4-fl peaks) [2]: 0.00064
DUX4-fl Enrichment (binding prevalence/overall genome prevalence) [2]: 0.57
DUX4-fl Binding Prevalence (fraction of all DUX4-fl peaks) (repeat family DNA/hAT-Charlie): 0.00761
DUX4-fl Enrichment (binding prevalence/overall genome prevalence) (repeat family DNA/hAT-Charlie): 0.51
DUX4-fl Binding Prevalence (fraction of all DUX4-fl peaks) (repeat family DNA/hAT-Tip100): 0.00098
DUX4-fl Enrichment (binding prevalence/overall genome prevalence) (repeat family DNA/hAT-Tip100): 0.45
DUX4-fl Binding Prevalence (fraction of all DUX4-fl peaks) (repeat family DNA/hAT?): 0.00016
DUX4-fl Enrichment (binding prevalence/overall genome prevalence) (repeat family DNA/hAT?): 0.94
DUX4-fl Binding Prevalence (fraction of all DUX4-fl peaks) (repeat family LINE/CR1): 0.00356
DUX4-fl Enrichment (binding prevalence/overall genome prevalence) (repeat family LINE/CR1): 1.00
DUX4-fl Binding Prevalence (fraction of all DUX4-fl peaks) (repeat family LINE/L1): 0.0938
DUX4-fl Enrichment (binding prevalence/overall genome prevalence) (repeat family LINE/L1): 0.58
DUX4-fl Binding Prevalence (fraction of all DUX4-fl peaks) (repeat family LINE/L2): 0.02978
DUX4-fl Enrichment (binding prevalence/overall genome prevalence) (repeat family LINE/L2): 0.86
DUX4-fl Binding Prevalence (fraction of all DUX4-fl peaks) (repeat family LTR/ERV): 0.00032
DUX4-fl Enrichment (binding prevalence/overall genome prevalence) (repeat family LTR/ERV): 5.33
DUX4-fl Binding Prevalence (fraction of all DUX4-fl peaks) (repeat family LTR/ERV1): 0.01878
DUX4-fl Enrichment (binding prevalence/overall genome prevalence) (repeat family LTR/ERV1): 0.72
DUX4-fl Binding Prevalence (fraction of all DUX4-fl peaks) (repeat family LTR/ERVK): 0.00803
DUX4-fl Enrichment (binding prevalence/overall genome prevalence) (repeat family LTR/ERVK): 2.97
DUX4-fl Binding Prevalence (fraction of all DUX4-fl peaks) (repeat family LTR/ERVL): 0.04558
DUX4-fl Enrichment (binding prevalence/overall genome prevalence) (repeat family LTR/ERVL): 2.50
DUX4-fl Binding Prevalence (fraction of all DUX4-fl peaks) (repeat family LTR/ERVL-MaLR): 0.3572
DUX4-fl Enrichment (binding prevalence/overall genome prevalence) (repeat family LTR/ERVL-MaLR): 9.92
DUX4-fl Binding Prevalence (fraction of all DUX4-fl peaks) (repeat family LTR/Gypsy): 0.00081
DUX4-fl Enrichment (binding prevalence/overall genome prevalence) (repeat family LTR/Gypsy): 1.07
DUX4-fl Binding Prevalence (fraction of all DUX4-fl peaks) (repeat family SINE/Alu): 0.00777
DUX4-fl Enrichment (binding prevalence/overall genome prevalence) (repeat family SINE/Alu): 0.08
DUX4-fl Binding Prevalence (fraction of all DUX4-fl peaks) (repeat family SINE/MIR): 0.02317
DUX4-fl Enrichment (binding prevalence/overall genome prevalence) (repeat family SINE/MIR): 0.82
DUX4-fl Binding Prevalence (fraction of all DUX4-fl peaks) (repeat family SINE/tRNA): 0.00011
DUX4-fl Enrichment (binding prevalence/overall genome prevalence) (repeat family SINE/tRNA): 1.57
DUX4-fl Binding Prevalence (fraction of all DUX4-fl peaks) (repeat family Satellite): 0.00068
DUX4-fl Enrichment (binding prevalence/overall genome prevalence) (repeat family Satellite): 0.66
DUX4-fl Binding Prevalence (fraction of all DUX4-fl peaks) (repeat family Satellite/centr): 0.00047
DUX4-fl Enrichment (binding prevalence/overall genome prevalence) (repeat family Satellite/centr): 0.19
DUX4-fl Binding Prevalence (fraction of all DUX4-fl peaks) (repeat family Simple_repeat): 0.00442
DUX4-fl Enrichment (binding prevalence/overall genome prevalence) (repeat family Simple_repeat): 0.53
DUX4-fl Binding Prevalence (fraction of all DUX4-fl peaks) (repeat family Unknown): 0.00063
DUX4-fl Enrichment (binding prevalence/overall genome prevalence) (repeat family Unknown): 1.47
DUX4-fl Binding Prevalence (fraction of all DUX4-fl peaks) (repeat family rRNA): 1.00E−04
DUX4-fl Enrichment (binding prevalence/overall genome prevalence) (repeat family rRNA): 1.67
